Data set [1] can be described thus: Acute toxicity, LD50 by intravenous route in mice (Lichtfield and Wilcoxon). Conditions: mouse, in vivo. On the procedure: The compounds of the invention as well as vincamine were administered by intravenous route to Charles River stock mice. The 50% lethal doses (LD50) where determined graphically according to the method of Lichtfield and Wilcoxon (J. Pharmacol. Exp. Therap. […], 96, 99).

The next data set has as its system mice. Put plainly: Hypobaric anoxia test on mice. Format: in vivo, mice (Charles River stock). The conditions noted are these: intragastric, 15 minutes before; for Survival time: 190 mm Hg (5.25% oxygen), control 39 (±2); for Survival time Variation %: 190 mm Hg, increase vs control animals. The procedure: Charles River stock mice of the same sex, weighing about 20±2 g are shared into three lots of 10 animals each. The lots 1 and 2 comprise treated animals, i.e. those having received either a substance to be tested or vincamine, together with solvent, at 1 ml/100 g of body weight. The third lot comprises control animals i.e. those having only received solvent at 1 ml/100 g of body weight.
The compounds examined are administered by intragastric route 15 minutes before the experiment.
The animals are placed in an atmosphere impoverished in oxygen by creating a partial vacuum (190 mm Hg, corresponding to 5.25% oxygen), in about 30 seconds.
The survival time of the mice is measured with a chronometer. Said time is increased by the agents capable of enhancing oxygenation of tissues and more particularly brain oxygenation. The percentages of survival time increase with respect to the values obtained for the control animals are calculated.
The doses were selected to obtain a 50-70% increase of the survival time of the animals under the experimental conditions.

The text below walks through data of US4285949A, “Vincamine derivatives, their preparation and therapeutical use” (Omnichem Societe Anonyme, priority 1978, dated 1981).

In general, LD50 refers to the dose expected to kill half of the subjects tested. Low values mean greater toxicity, high ones lower toxicity. Regarding `CC[C@]12C=CCN3CCc4c(n(c5ccc(Cl)cc45)C(C(=O)OC)=C1)[C@@H]32` [OC-233, 10-Chloro-apo-Δ14-vincamine], the LD50 in data set [1] (iv) stood at 52 mg/kg. Further, in the data set on mice (20 mg/kg), the Survival time is 57 (±4) and the “Survival time Variation %” value was “+46%”.

In data set [1] (iv), `CC[C@]12C=CCN3CCc4c(n(c5ccc(Cl)cc45)[C@@](O)(C(=O)OC)C1)[C@@H]32` [OC-231 N, 10-Chloro-Δ14-vincamine] gave an LD50 of 47 mg/kg. In the data set with mice (30 mg/kg), the Survival time is reported as 60 (±1) and the “Survival time Variation %” value is given as “+53%”.

As for `CC[C@]12CCCN3CCc4c(n(c5ccccc45)[C@@](O)(C(=O)OC)C1)[C@@H]32` [Vincamine], the median lethal dose (LD50) in data set [1] (mice, intravenous) amounted to 47 mg/kg. For the same compound, in the data set on mice (200 mg/kg), the Survival time is listed as 58 (±4) and the “Survival time Variation %” value is “+49%”.

Consider `CC[C@]12C=CCN3CCc4c(n(c5ccc(Cl)cc45)[C@](O)(C(=O)OC)C1)[C@@H]32` [OC-231 E, 10-Chloro-16-epiΔ14-vincamine], for which the LD50 in data set [1] (iv) was 47 mg/kg. In the data set on mice (30 mg/kg), the Survival time is listed as 62 (±6) and the “Survival time Variation %” value is on record as “+55%”.
